Measurements as given in US12036195B2, “Co-crystals of NURR1-lbd in complex with a cyclopentenone prostaglandin and modulators of NURR1” (Nanyang Technological University, priority 2016, dated 2024).

Tests used:
Nurr1 [1] = target: T1, Nurr1 (Homo sapiens, UniProt P43354); settings: high throughput screening of >340,000 compounds; cited from earlier work
Nurr1-LBD [2] = target: T2, Nurr1-LBD (Homo sapiens, UniProt P43354); experiment: 2D 1H-15N HSQC NMR chemical shift perturbation on Nurr1-LBD; format: binding; settings: 15N-labeled Nurr1-LBD, 1:10 molar ratio protein:ligand; residues in helix 11 and 12 perturbed
T2 construct: The human Nurr1-LBD construct coding for residues 328-598 (hNurr1-LBD) was cloned into pETSUMO expression vector; SUMO tag (pETSUMO vector, purified on Ni2+-NTA) (cleaved yes); made in house; host or cells: E. coli BL21 (DE3)
T2 sequence (P43354 328-598): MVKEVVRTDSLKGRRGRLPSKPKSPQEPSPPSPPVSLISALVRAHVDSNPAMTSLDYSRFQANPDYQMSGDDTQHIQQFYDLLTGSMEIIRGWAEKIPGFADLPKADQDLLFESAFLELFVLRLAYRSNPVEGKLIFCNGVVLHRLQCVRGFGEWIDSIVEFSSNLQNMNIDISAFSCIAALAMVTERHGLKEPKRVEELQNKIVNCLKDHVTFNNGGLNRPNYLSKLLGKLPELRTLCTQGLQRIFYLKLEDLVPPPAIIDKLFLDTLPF
Procedure: 0.2 mM uniformly ^15-N labeled Nurr1-LBD protein was prepared in 20 mM sodium phosphate buffer containing 50 mM NaCl, 0.01% NaN3 (pH 7.5) in 90% H2O/10% D2O. The interaction between Nurr1-LBD and PGA1/PGA2 (in DMSO vehicle) was examined using two dimensional HSQC comparing free protein sample with 1:10 molar ratio of Nurr1-LBD:PGA1/PGA2. The backbone resonance and sequence specific resonance assignments were previously assigned for Nurr1-LBD as reported (Kim, et. al. Proc Nat Acad Sci 112, 8756-8761 (2015)). The binding sites of PGA1/PGA2 were mapped on the crystal structure of Nurr1-LBD (PDB code: 1OVL) after determining the chemical shift perturbations following the addition of PGA1/PGA2 against the spectrum of the free protein. Bruker Avance II 700 MHz spectrometer fitted with a 5 mm triple resonance, z-axis-gradient cryoprobe at 298K was used for all NMR experiments. All spectra were processed directly to SPARKY format in UNIX and analyzed using the SPARKY 3.114 program (Goddard and Kneller, SPARKY In, 3.114 Edition: Univ of Calif (2002)).
Prostaglandins are a family of biologically potent lipids from membrane phospholipids; comprised of a C20-unsaturated fatty acid containing a cyclopentenone ring. […]

Nurr1-LBD [3] = target: T2, Nurr1-LBD; experiment: Top-down mass spectrometry of covalent coupling to Nurr1-LBD; format: binding; settings: overnight incubation at 1:1.5 molar ratio
Procedure: Nurr1-LBD at ˜300 μM prepared in 0.1% FA in water was analyzed using a Dionex UltiMate 3000 UHPLC coupled to a linear quadrupole ion trap-Fourier transform Ultra apparatus (LTQ-FT Ultra, Thermo Scientific Inc.). Protein solution (5 μL) was injected directly into the detector carried by 0.1% FA in water at 500 μL/min. On-line ionization was performed using a Michrom CaptiveSpray ion source (Bruker-Michrom Inc., Auburn, USA) at an electrospray potential of 1.5 kV and capillary temperature of 200° C. Data acquisition was conducted in profile and positive mode (600-1600 m/z range). Mass spectrometry (MS) data was acquired for 60 min in the FT-ICR cell at a resolution of 100,000 (at 400 m/z) and maximum injection time of 500 msec using Xcalibur version 2.0 SR2 (Thermo Scientific Inc., Bremen, Germany). The automatic gain control target for FT-ICR was set to 5.0e+05. For each scan 100 microscans were averaged. […]
To exclude the possibility that the covalent coupling of PGA1/PGA2 to human Nurr1-LBD domain seen in the crystal structures was an artifact of crystallization or exposure to high-intensity X-rays, Nurr1-LBD at ˜ 300 μM prepared in 0.1% FA in water was analyzed using a Dionex UltiMate 3000 UHPLC coupled to a linear quadrupole ion trap-Fourier transform Ultra apparatus (LTQ-FT Ultra, Thermo Scientific Inc.). […]

LRRK2 G2019S Drosophila = experiment: Climbing assay and survival in LRRK2 G2019S Drosophila; format: in vivo, Drosophila melanogaster
Procedure: FIG. 4. Mitigation of locomotor deficits and mortality in LRRK2 G2019S Drosophila by CyPGs. Drosophila melanogaster expressing LRRK2 G2019S mutation driven by ddc-Gal4 result in late-onset PD in these flies. Treatment with 50 μM PGA2 was able to improve their climbing ability from 9.7% to 36.4% when compared to age-matched mutant flies (0.5% EtOH drug vehicle). Survival rate was determined by counting the number of flies that survived every 2-3 days for 55 days post-eclosion. Flies were treated with cornmeal-agar medium containing 50 μM PGA2 for 25 days at day 30 post-eclosion and climbing assay was carried out on day 55. The number of flies that climbed beyond a median line in a vertical column (length 25 cm; diameter 1.5 cm) were counted after one minute for an average of six times. Results represent mean±SEM of climbing scores from three independent experiments. Student's t-test (unpaired) was conducted to determine statistical significance between G2019S (vehicle treated) and PGA2-treated mutant flies: *p<0.05.
Flies expressing Leucine-rich repeat kinase 2 (LRRK2) with G2019S mutation driven by dopa decarboxylase (ddc)-Gal4 leads to late-onset PD in these flies (Liu, et al. Proc Natl Acad Sci USA 105, 2693-2698, doi:10.1073/pnas.0708452105 (2008)). […]

HL60 cells = settings: direct interaction with mitochondria; cited from earlier work
Nurr1 [4] = target: T1, Nurr1; settings: binding with Nurr1-LBD at its non-canonical ligand-binding site; cited from earlier work

T1 sequence (P43354 whole entry, species assumed, the tested form may be a part): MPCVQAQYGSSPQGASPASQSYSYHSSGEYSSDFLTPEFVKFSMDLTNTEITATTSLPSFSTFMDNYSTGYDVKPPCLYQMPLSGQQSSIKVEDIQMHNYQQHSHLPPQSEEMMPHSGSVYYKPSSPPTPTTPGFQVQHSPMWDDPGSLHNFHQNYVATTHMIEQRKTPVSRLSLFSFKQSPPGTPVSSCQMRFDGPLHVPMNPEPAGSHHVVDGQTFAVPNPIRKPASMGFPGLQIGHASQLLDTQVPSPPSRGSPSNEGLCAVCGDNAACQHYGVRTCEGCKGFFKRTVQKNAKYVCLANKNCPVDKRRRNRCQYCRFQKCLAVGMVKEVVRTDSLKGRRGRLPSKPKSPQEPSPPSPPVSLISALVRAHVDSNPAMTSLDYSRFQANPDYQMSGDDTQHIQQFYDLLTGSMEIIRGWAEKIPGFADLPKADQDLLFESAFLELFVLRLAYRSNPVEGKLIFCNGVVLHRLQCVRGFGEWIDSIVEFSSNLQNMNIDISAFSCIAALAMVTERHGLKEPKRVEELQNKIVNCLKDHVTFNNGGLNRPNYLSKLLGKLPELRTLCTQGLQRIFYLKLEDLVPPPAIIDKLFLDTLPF

| Structure (SMILES) | interaction with Nurr1-LBD by chemical shift perturbations (Nurr1-LBD [2]) | fraction of Nurr1 that binds the ligand covalently (Nurr1-LBD [3]) | transcriptional function of Nurr1 (Nurr1 [4]) | also measured |
| --- | --- | --- | --- | --- |
| Sc1ncnc2nc[nH]c12 [6-mercaptopurine] | – | – | – | activation of Nurr1 (Nurr1 [1]): activate Nurr1 through a region in the amino terminus lacking a LBD |
| CCCCCC(O)/C=C/[C@H]1C=CC(=O)[C@@H]1CCCCCCC(=O)O (stereo partly shown) [PGA1, prostaglandin A1] | direct physical interaction | about 50% | – | – |
| CCCCCC(O)/C=C/[C@H]1C=CC(=O)[C@@H]1C/C=C\CCCC(=O)O (stereo partly shown) [PGA2, prostaglandin A2] | direct physical interaction | about 50% | – | climbing ability (LRRK2 G2019S Drosophila; 50 μM in medium for 25 days from day 30 post-eclosion, assay on day 55, vehicle-treated mutant flies 9.7%): 36.4%; overall survival rate (LRRK2 G2019S Drosophila; PGA2 treated flies compared to vehicle treated mutant flies, 55 days post-eclosion): improvement to their overall survival rate; apoptosis in HL60 cells (HL60 cells): induce intrinsic apoptosis in HL60 cells |
| CCN(CC)Cc1cc(Nc2ccnc3cc(Cl)ccc23)ccc1O [amodiaquine] | – | – | enhance the transcriptional function of Nurr1 | – |
| CCN(CC)CCCC(C)Nc1ccnc2cc(Cl)ccc12 (stereo not shown) [chloroquine] | – | – | enhance the transcriptional function of Nurr1 | – |
